How the values were obtained:
[1] = physical stability of solid-state forms at ambient temperatures; type: physicochemical; conditions: compared with the other solid-state forms of Compound 1
From the text: In one embodiment, the invention comprises the Form I polymorph of Compound 1. […] Similarly, selection of a solid-state form of Compound 1 that is physically stable over a wide range of storage conditions (especially considering the different possible storage conditions that can occur during the lifetime of a Compound 1 product) can help avoid polymorphic or other degradative changes in the Compound 1 that can lead to product loss or deterioration of product efficacy.

[2] = slurry conversion of dihydrate crystals to Form I polymorph in tetrahydrofuran/water; type: physicochemical; conditions: 80:20 tetrahydrofuran/water mixture (volume basis), 25° C.
Experimental: The dihydrate crystalline form of Compound 1 also can be prepared, for example, by slurry conversion of the Form II polymorph in a tetrahydrofuran/water mixture. A sufficient amount of the Form II polymorph is added to an 80:20 tetrahydrofuran/water mixture (volume basis) to form a saturated solution at 25° C. The solution then spontaneously desaturates by precipitating dihydrate crystals. Once precipitated, the dihydrate crystals eventually convert to the more thermodynamically stable Form I polymorph.

SMILES | physical stability at ambient temperatures [1] | time before conversion to the more thermodynamically stable Form I polymorph [2]
O=C(CO)N1CCC(c2[nH]nc(-c3ccc(Cl)cc3)c2-c2ccncn2)CC1 [Form I polymorph, N-(2-hydroxyacetyl)-5-(4-piperidyl)-4-(4-pyrimidinyl)-3-(4-chlorophenyl)pyrazole] | greater physical stability at ambient temperatures than the other solid-state forms of Compound 1 | –
O=C(CO)n1nc(-c2ccc(Cl)cc2)c(-c2ccncn2)c1C1CCNCC1 [dihydrate crystalline form, N-(2-hydroxyacetyl)-5-(4-piperidyl)-4-(4-pyrimidinyl)-3-(4-chlorophenyl)pyrazole] | – | does not take place for about four days

From US6872725B2, “Solid-state forms of N-(2-hydroxyacetyl)-5-(4-piperidyl)-4-(4-pyrimidinyl)-3-(4-chlorophenyl) pyrazole” (Pharmacia Corporation, priority 2001, dated 2005)
